Where two headings read alike, the source gives them in different places.
Target: LC3B (Homo sapiens, UniProt Q9GZQ8)
Conditions: LC3B:ligand molar ratio 1:2

For `Cc1ccc(C(=O)N(CCCN)[C@@H](c2nc3cc(Cl)ccc3c(=O)n2Cc2ccccc2)C(C)C)cc1` [compound 3, (R)-N-(3-aminopropyl)-N-(1-(3-benzyl-7-chloro-4-oxo-3,4-dihydroquinazolin-2-yl)−2-methylpropyl)−4-methylbenzamide], the CSP (LC3B residue A75) was 0.00171 ppm, the CSP (LC3B residue A78) was 0.000906 ppm and the CSP (LC3B residue A114) was 0.00141 ppm. It also gave a CSP (LC3B residue D19) of 0.000707 ppm, a CSP (LC3B residue D48) of 0.010 ppm and a CSP (LC3B residue D56) of 0.00434 ppm. For the same compound, the CSP (LC3B residue D104) was 0.002 ppm, the CSP (LC3B residue D106) was 0.005 ppm and the CSP (LC3B residue E14) was 0.00152 ppm. The CSP (LC3B residue E18) was 0.003 ppm, the CSP (LC3B residue E25) was 0.00212 ppm and the CSP (LC3B residue E36) was 0.00158 ppm. It also gave a CSP (LC3B residue E41) of 0.0011 ppm, a CSP (LC3B residue E62) of 0.00213 ppm and a CSP (LC3B residue E97) of 0.005 ppm. For the same compound, the CSP (LC3B residue E100) was 0.004 ppm, the CSP (LC3B residue E102) was 0.000721 ppm and the CSP (LC3B residue E105) was 0.00232 ppm. It also gave a CSP (LC3B residue E117) of 0.00224 ppm, a CSP (LC3B residue F07) of 0.00141 ppm and a CSP (LC3B residue F13) of 0.000721 ppm. For the same compound, the CSP (LC3B residue F52) was 0.011 ppm, the CSP (LC3B residue F108) was 0.006 ppm and the CSP (LC3B residue F119) was 0.00255 ppm. For the same compound, the CSP (LC3B residue G40, estimated) was 0.002 ppm, the CSP (LC3B residue G107) was 0.002 ppm and the CSP (LC3B residue H27) was 0.00453 ppm. For the same compound, the CSP (LC3B residue H57) was 0.00237 ppm, the CSP (LC3B residue I23) was 0.00158 ppm and the CSP (LC3B residue I31) was 0.00281 ppm. It also gave a CSP (LC3B residue I34) of 0.00571 ppm, a CSP (LC3B residue I35) of 0.00158 ppm and a CSP (LC3B residue I64) of 0.00474 ppm. The CSP (LC3B residue I66) was 0.000721 ppm, the CSP (LC3B residue I67) was 0.003 ppm and the CSP (LC3B residue K08) was 0.00364 ppm. The CSP (LC3B residue K30) was 0.000762 ppm, the CSP (LC3B residue K39) was 0.00212 ppm and the CSP (LC3B residue K42) was 0.00255 ppm. For the same compound, the CSP (LC3B residue K49) was 0.00665 ppm, the CSP (LC3B residue K51) was 0.00356 ppm and the CSP (LC3B residue K65) was 0.00216 ppm. It also gave a CSP (LC3B residue K103) of 0.00165 ppm, a CSP (LC3B residue L22) of 0.002 ppm and a CSP (LC3B residue L44) of 0.006 ppm. For the same compound, the CSP (LC3B residue L47) was 0.009 ppm, the CSP (LC3B residue L53) was 0.007 ppm and the CSP (LC3B residue L63) was 0.004 ppm. The CSP (LC3B residue L71) was 0.000566 ppm, the CSP (LC3B residue L73) was 0.000849 ppm and the CSP (LC3B residue L109) was 0.00144 ppm. For the same compound, the CSP (LC3B residue M01, estimated) was 0.002 ppm, the CSP (LC3B residue M60) was 0.00216 ppm and the CSP (LC3B residue M111) was 0.00255 ppm. It also gave a CSP (LC3B residue N59) of 0.009 ppm, a CSP (LC3B residue N74) of 0.00173 ppm and a CSP (LC3B residue N76) of 0.00171 ppm. The CSP (LC3B residue P02, estimated) was 0.002 ppm, the CSP (LC3B residue P28, estimated) was 0.005 ppm and the CSP (LC3B residue P32, estimated) was 0.003 ppm. It also gave a CSP (LC3B residue P45, estimated) of 0.005 ppm, a CSP (LC3B residue P55, estimated) of 0.006 ppm and a CSP (LC3B residue Q09) of 0.00173 ppm. For the same compound, the CSP (LC3B residue Q15) was 0.00158 ppm, the CSP (LC3B residue Q26) was 0.003 ppm and the CSP (LC3B residue Q43) was 0.00158 ppm. It also gave a CSP (LC3B residue Q72) of 0.00243 ppm, a CSP (LC3B residue Q77) of 0.0011 ppm and a CSP (LC3B residue Q116) of 0.00181 ppm. The CSP (LC3B residue R10) was 0.00165 ppm, the CSP (LC3B residue R11) was 0.0024 ppm and the CSP (LC3B residue R16) was 0.00181 ppm. It also gave a CSP (LC3B residue R21) of 0.002 ppm, a CSP (LC3B residue R24) of 0.000424 ppm and a CSP (LC3B residue R37) of 0.00181 ppm. For the same compound, the CSP (LC3B residue R68) was 0.00643 ppm, the CSP (LC3B residue R69) was 0.00362 ppm and the CSP (LC3B residue R70) was 0.00566 ppm. It also gave a CSP (LC3B residue S03, estimated) of 0.002 ppm, a CSP (LC3B residue S61) of 0.00376 ppm and a CSP (LC3B residue S96) of 0.004 ppm. It also gave a CSP (LC3B residue S101) of 0.00148 ppm, a CSP (LC3B residue S115) of 0.00122 ppm and a CSP (LC3B residue T06) of 0.00255 ppm. For the same compound, the CSP (LC3B residue T12) was 0.006 ppm, the CSP (LC3B residue T29, estimated) was 0.002 ppm and the CSP (LC3B residue T50) was 0.008 ppm. The CSP (LC3B residue T118) was 0.00152 ppm, the CSP (LC3B residue V17) was 0.0011 ppm and the CSP (LC3B residue V20) was 0.00281 ppm. For the same compound, the CSP (LC3B residue V33) was 0.00472 ppm, the CSP (LC3B residue V46) was 0.00449 ppm and the CSP (LC3B residue V54) was 0.009 ppm. The CSP (LC3B residue V58) was 0.00542 ppm, the CSP (LC3B residue V98) was 0.00173 ppm and the CSP (LC3B residue V112) was 0.00638 ppm. The CSP (LC3B residue Y38) was 0.00165 ppm, the CSP (LC3B residue Y99) was 0.00144 ppm and the CSP (LC3B residue Y110) was 0.00214 ppm. For the same compound, the CSP (LC3B residue Y113) was 0.00232 ppm.

— article PMC11589570, “Critical assessment of LC3/GABARAP ligands used for degrader development and ligandability of LC3/GABARAP binding pockets” (Nature Communications, 2024)
